Source: US20220088121A1, “COMPOSITIONS CONTAINING A PEPTIDE ABLE TO STIMULATE THE GPRC6A-DEPENDENT SIGNALING PATHWAY” (Altergon S.A., priority 2019, published 2022)

Experiments:
[1] = test system: INS-1 rat insulinoma cells; experiment: Insulin release from INS-1 insulinoma cell cultures; type: cell-based; details: experimental models of cell line cultures
Description: INS-1 rat insulinoma cells, cultured to 90% confluence in 24-well multiwell plates, were stimulated with different combinations of secretagogue agonists for 2 hours at 37° C. under sterile conditions, according to an already validated protocol [Hohmeier Diabetes. […] Stimulation with the phosphodiesterase inhibitor IBMX (Gluc 1 mM+IBMX) represents the maximum secretagogue stimulation and positive control of the experiment. […] Significance: *, ** and ***=P<0.05, 0.01 and 0.001 respectively vs the baseline control.

[2] = test system: MA-10 mouse Leydig cell tumour cell lines; experiment: Testosterone release from MA-10 mouse Leydig-cell tumour cell cultures; type: cell-based; details: experimental models of cell line cultures; Example 1: peptide 10^−6M, 12 hours at 37° C. (FIG. 1)
Description: MA-10 mouse Leydig-cell tumour cells, cultured to 90% confluence in 24-well multiwell plates, were stimulated with different agonists for 12 hours at 37° C. under sterile conditions, according to an already validated protocol [Cormier Cell Biol Toxicol. […] The control (CTRL) contained no agonists. The results relate to testosterone release, expressed as ng of testosterone (T) per μg of total protein, obtained from cell extract. […] Significance: *=P<0.05 vs. CTRL.
MA-10 mouse Leydig-cell tumour cells, cultured to 90% confluence in 24-well multiwell plates, were stimulated with different agonists for 12 hours at 37° C. under sterile conditions, according to an already validated protocol [Cormier Cell Biol Toxicol. […] Significance: *, ** and ***=P<0.05, 0.01 and 0.001 respectively vs the baseline control.

In the case of NMYLPPVPPPPVVPTF [SEQ ID 1], the insulin release [1] is reported as “stimulates” and the testosterone release [2] is reported as “stimulates”.
